Data set [1] deals with subjects with myelodysplastic syndrome. The settings on record: after receiving azacitidine; cited from earlier work.
In the next data set the test system is E-selectin. Conditions: with chemotherapy; AML mouse models; cited from earlier work.
The subject of another data set is AML cell lines. Conditions: combined with a concentration of an exemplary IRAK inhibitor; cited from earlier work.
A further data set deals with Menin-KMT2A (MLL). The settings on record: pre-clinical studies; cited from earlier work.
The next data set deals with MOLM14 (D835Y) cells. Kind of data set: Combination drug screening with venetoclax, Cell Titer Glo, MOLM14 (D835Y). In kind it is cell-based. The arrangement: key: relative excess HSA score; more negative = greater synergy. Conditions: compound 0-0.5 μM, venetoclax 0-20 μM, 10 × 10, 48 h, negative = synergy. As to the method: (§1) Combination drug therapy has the potential to produce enhanced effects with lower side effects not obtained using either agent alone, or beyond the additive effect of the different concentrations of the two different agents. To determine whether enhanced effects are observed in different drug combinations, combination drug screening was performed as previously described (Mathews-Griner, L. A. et al., Proc. Nat. Acad. Sci., 2014, 111:2349-2354; Lin, G. L. et al., Sci. Trans. Med., 2019, 11: eaaw0064). Briefly, 10 nL of compounds were acoustically dispensed into 1536-well white polystyrene tissue culture-treated plates with an Echo 550 acoustic liquid handler (Labcyte). Cells were then added to compound-containing plates at a density of 500-cells/well in 5 μL of medium. A 10-point custom concentration range was used for all listed drugs in a 10×10 matrix. Plates were incubated for 48 hours at standard incubator conditions covered by a stainless steel gasketed lid to prevent evaporation. 48 hours post compound addition, 3 μL of Cell Titer Glo (Promega) were added to each well and plates were incubated at room temperature for 15 minutes with the stainless-steel lid in place. Luminescence readings were taken using a Viewlux imager (PerkinElmer) with a 2 second exposure time per plate.
(§2) Each compound was studied in combination with venetoclax at two concentration ranges of compound and venetoclax, respectively (for a total of 4 combination dose-response curves). The dose combinations that yielded the optimal synergy score, measured as excess HSA, which are reported in Tables 23 and 24 for the FLT3 mutant cell line MOLM14 (D835Y) and the FLT3 WT cell line THP1, respectively.
Table 23 provides combination outcomes for representative compounds with venetoclax in the Cell Titer Glo assay in MOLM14 (D835Y) cells (a FLT3 mutant cell line) at 48 hours. The table provides relative excess HSA values for compounds of the disclosure used in combination with venetoclax compared to gilteritinib hemifumarate used in combination with venetoclax. A negative excess HSA score illustrates that the drug combination is better than either drug alone, wherein greater synergy is observed at larger negative values of the excess HSA score.
(§3) Excess HSA is a measure of synergy vs. additivity or antagonism, wherein a negative excess HSA value is indicative of synergy. More information on excess HSA scores can be found in Vlot, Anna H. C. et al., Drug Discovery Today, 2019, 24(12):2286-2298. […] However, different methodologies may yield different numerical scores, and different definitions of what constitutes a deviation from mere additivity vs true drug synergy. The large negative excess HSA values provided in Tables 23 and 24 illustrate that multiple members of this structural class synergize with venetoclax. The degree to which combination therapy has to potential to produce enhanced effects with lower side effects not obtained using either agent alone, or beyond the additive effect of the different concentrations of the two different agents depends on the nature of the drugs used in the combination, and the specific doses/concentrations at which they are ultimately used in the therapeutic regimen. A negative excess HSA score illustrates that the drug combination is better than either drug alone (at the concentrations being studied). […] However, the utility in certain drug combinations vs. others should not be distinguished based on cutoffs between excess HSA scores, because the score itself is only a relative indicator that is completely dependent on experimental design and is not an absolute number. Furthermore, the concept of what constitutes clinically meaningful drug synergy is something that is still being debated, not only between pharmacologists and physicians, but amongst pharmacologists themselves. […]

Another data set has as its system THP1 cells. Kind of data set: Combination drug screening with venetoclax, Cell Titer Glo, THP1. The format is cell-based. The settings on record: compound 0-20 μM, venetoclax 0-2 μM, 10 × 10, 48 h, negative = synergy. The method, then:
as §1, §2
Table 24 provides combination outcomes for representative compounds with venetoclax in the Cell Titer Glo assay in THP1 (FLT3 wild type) cells at 48 hours. The table provides relative excess HSA values for compounds of the disclosure used in combination with venetoclax compared to gilteritinib hemifumarate used in combination with venetoclax. A negative excess HSA score illustrates that the drug combination is better than either drug alone, wherein greater synergy is observed at larger negative values of the excess HSA score.
as §3

On to `Nc1ncn([C@@H]2O[C@H](CO)[C@@H](O)[C@H]2O)c(=O)n1` [azacitidine], for which, in data set [1], the “patients who required blood transfusions and no longer needed them” value is “about two-thirds”.
For `CC[C@H]1C[C@@H](C(=O)NCCNC(=O)CCOCCOCCOCCOCCOCCOCCOCCOCCOCCOCCOCCOC)C[C@@H](O[C@@H]2O[C@H](CO)[C@H](O)[C@H](O[C@@H](CC3CCCCC3)C(=O)O)[C@H]2NC(C)=O)[C@@H]1O[C@@H]1O[C@@H](C)[C@@H](O)[C@@H](O)[C@@H]1O` [Uproleselan], the “duration of mouse survival over chemotherapy alone” value in the data set on E-selectin is “doubling the duration of mouse survival over chemotherapy alone”.
For the molecule `CC1(C)CCC(CN2CCN(c3ccc(C(=O)NS(=O)(=O)c4ccc(NCC5CCOCC5)c([N+](=O)[O-])c4)c(Oc4cnc5[nH]ccc5c4)c3)CC2)=C(c2ccc(Cl)cc2)C1` [venetoclax], in the data set on AML cell lines, the “increase of potency of venetoclax” value is ~ 50 -fold.
Consider `CNc1nc(NC2CCN(Cc3ccc4c(cc(C#N)n4C[C@H](C)N4CCN(S(C)(=O)=O)CC4)c3C)CC2)c2cc(CC(F)(F)F)sc2n1` [KO-539], for which, in the data set with Menin-KMT2A (MLL), the pharmacokinetic properties result is “excellent pharmacokinetic properties” and the toxicity profile entry is on record as “low toxicity profiles”.
In the case of `CCN(C(=O)c1cc(F)ccc1Oc1cncnc1N1CC2(CCN(C[C@H]3CC[C@H](NS(=O)(=O)CC)CC3)CC2)C1)C(C)C` [SNDX-5613], in the data set on Menin-KMT2A (MLL), the pharmacokinetic properties entry is “excellent pharmacokinetic properties” and the toxicity profile entry is reported as “low toxicity profiles”.
Take `CCc1nc(C(N)=O)c(Nc2ccc(N3CCC(N4CCN(C)CC4)CC3)c(OC)c2)nc1NC1CCOCC1` [Gilteritinib hemifumarate, Gilteritinib, reference compound]: the “Excess HSA” value in the data set with MOLM14 (D835Y) cells is −1556; with THP1 cells it was −1626.

The record behind these values is patent publication US20260374773A1, “MULTI-CYCLIC IRAK AND FLT3 INHIBITING COMPOUNDS AND USES THEREOF” (CHILDREN'S HOSPITAL MEDICAL CENTER, priority 2022, published 2026).
